Results published in US20140286906A1, “USE OF IGF-1 IN THE MODULATION OF TREG CELL ACTIVITY AND THE TREATMENT AND PREVENTION OF AUTOIMMUNE DISORDERS OR DISEASES” (priority 2011, published 2014).

What was measured:
CD25+ splenic CD4+ cells = experiment: in vitro expansion of FACS-sorted splenic CD4+CD25+ cells; type: cell-based, murine; conditions: TCR stimulation with anti-CD3 and anti-CD28 antibodies
Experimental: In a preferred embodiment for expanding Treg cells in vitro/ex vivo, IGF-1 is added at a certain concentration (e.g. between 1 and 100 ng/ml) in a medium that allows for the cells to survive and grow (e.g. in mice, RPM1 1640 plus 10% fetal calf serum plus other additives including beta-mercaptoethanol, Sodium Pyruvate, Penicillin/Streptomycin, L-Glutamine or equivalent defined media). Additionally, T cells are stimulated with anti-CD3. The costimulatory agent is an antibody or ligand specific for a TCR costimulator, such as CD28 (like in example 1) or GITR, as described below.
In animal experiments, the population is isolated normally from murine spleen (but also could be isolated from other tissues, like for example but not restricted to bone marrow, adipose tissue, cord blood derived mononuclear cell, thymus, or peripheral blood) and is sorted using different markers (e.g., CD4 and CD25). This population is defined as CD4+CD25+ and includes the regulatory cells. This population is then treated in the above-mentioned medium in the presence of IGF-1. After several days of culture part of the cells are counted, fixed, permeabilized and analyzed by flow cytometry using an anti-FOXP3 antibody in combination with the same extracellular markers (CD4 and CD25). This allows for the determination of the absolute number of FOXP3 positive cells present in the culture. […]

[1] = system: proinflamatory subsets Th1 (IFN-gamma+) and Th17 (IL-17+); experiment: flow cytometry of polarized Th1 and Th17 subsets; type: cell-based; conditions: 2 day polarization, 3 day incubation with recombinant IGF-1
Experimental: To determine the effect of IGF-1 in the regulatory subset in vitro (cf. FIG. 4) the number of FOXP3 positive cells is determined by flow cytometric analysis. To analyze other subsets, like the proinflammatory Th1 and Th17 subsets, a similar approach is used but the number of interferon-gamma (Th1) and IL-17 (Th17) positive cells is determined. Additionally, to evaluate the number of proliferating cells at a given moment cells are stained using the intracellular marker Ki67, which is expressed only in cycling cells. The combination of a specific lineage marker (e.g., Foxp3, IFN-g, IL-17) with Ki67 allows for the determination at a given moment of the cells belonging to a certain subset and their proliferative status.
An important aspect regarding the immunomodulatory properties of IGF-1 is the specificity of the effect for a certain cellular subset, in this case Tregs. If IGF-1 was a general anabolic factor affecting equally all subsets, it would no affect the balance of pro-inflammatory/anti-inflammatory players. In order to test the hypothesis that IGF-1 induces immune tolerance by specifically affecting the suppressive function, CD4 positive […] cells were polarized for two days into the IFN-gamma secreting Th1 subset and the IL-17 secreting Th17 subset and then incubated with IGF-1.

[2] = mouse, in vivo

With Insulin-like growth factor-1 [IGF-1] the “in vitro expansion of CD25 positive subset” value (CD25+ splenic CD4+ cells) was “consistently promoted the in vitro expansion”, the “cells expressing IFN-gamma (Th1)” value [1] was “no effect” and the “cells expressing IL-17 (Th17)” value [1] was “no effect”. For the same substance, the tumors at necropsy [2] was “never found tumors”.
